Measured values published in ChEMBL document CHEMBL5331086, “Natural product evodiamine-inspired medicinal chemistry: Anticancer activity, structural optimization and structure-activity relationship” (Eur J Med Chem, 2023).
Values after ≈ are worked out from the molar mass of the structure shown.

Tests used:
MDA-MB-435 [1] = assay: Antiproliferative activity against human MDA-MB-435 cells; assay type: functional, cell-based
HCT-116 [2] = assay: Antiproliferative activity against human HCT-116 cells assessed as reduction in cell viability incubated for 48 hrs by MTT assay; assay type: functional, cell-based; conditions: HCT-116, 48 h
A549 [3] = assay: Antiproliferative activity against human A549 cells assessed as reduction in cell viability incubated for 48 hrs by MTT assay; assay type: functional, cell-based; conditions: A549, 48 h
A549 [4] = assay: Antiproliferative activity against human A549 cells; assay type: functional, cell-based
[5] = Solubility of compound in water; assay type: physicochemical
HCT-116 [6] = assay: Antiproliferative activity against human HCT-116 cells; assay type: functional, cell-based
A549 [7] = assay: Cytotoxicity against human A549 cells assessed as reduction in cell viability measured after 24 hrs by MTT assay; assay type: functional, cell-based; conditions: A549, 24 h
MDA-MB-435 [8] = assay: Cytotoxicity against human MDA-MB-435 cells assessed as reduction in cell viability measured after 24 hrs by MTT assay; assay type: functional, cell-based; conditions: MDA-MB-435, 24 h
HCT-116 [9] = assay: Cytotoxicity against human HCT-116 cells assessed as reduction in cell viability measured after 24 hrs by MTT assay; assay type: functional, cell-based; conditions: HCT-116, 24 h
MCF7 [10] = assay: Antiproliferative activity against human MCF7 cells assessed as reduction in cell viability incubated for 48 hrs by MTT assay; assay type: functional, cell-based; conditions: MCF7, 48 h
[11] = Solubility of compound in water incubated for 24 hrs by HPLC-UV analysis; assay type: physicochemical
Huh-7 = assay: Antiproliferative activity against human Huh-7 cells assessed as reduction in cell viability incubated for 48 hrs by CCK-8 assay; assay type: functional, cell-based; conditions: Huh-7, 48 h
HepG2 [12] = assay: Antiproliferative activity against human HepG2 cells assessed as reduction in cell viability incubated for 48 hrs by CCK-8 assay; assay type: functional, cell-based; conditions: HepG2, 48 h
HCCLM9 = assay: Antiproliferative activity against human HCCLM9 cells assessed as reduction in cell growth incubated for 48 hrs by CCK-8 assay; assay type: functional, cell-based; conditions: HCCLM9, 48 h
HCT-116 [13] = assay: Antiproliferative activity against human HCT-116 cells assessed as reduction in cell viability incubated for 48 hrs by CCK-8 assay; assay type: functional, cell-based; conditions: HCT-116, 48 h
SW-620 = assay: Cytotoxicity against human SW-620 cells assessed as reduction in cell viability incubated for 48 hrs by CCK-8 assay; assay type: functional, cell-based; conditions: SW-620, 48 h
MDA-MB-231 = assay: Antiproliferative activity against human MDA-MB-231 cells assessed as reduction in cell viability incubated for 48 hrs by CCK-8 assay; assay type: functional, cell-based; conditions: MDA-MB-231, 48 h
MCF7 [14] = assay: Antiproliferative activity against human MCF7 cells assessed as reduction in cell viability incubated for 24 hrs by MTT assay; assay type: functional, cell-based; conditions: MCF7, 24 h
HepG2 [15] = assay: Antiproliferative activity against human HepG2 cells assessed as reduction in cell viability incubated for 24 hrs by MTT assay; assay type: functional, cell-based; conditions: HepG2, 24 h
[16] = Antiproliferative activity against human HUVEC cells; assay type: toxicity, cell-based
MCF7 [17] = assay: Antiproliferative activity against human MCF7 cells; assay type: functional, cell-based
HCT-15 = assay: Cytotoxicity against human HCT-15 cells assessed as reduction in cell viability incubated for 48 hrs by MTT assay; assay type: functional, cell-based; conditions: HCT-15, 48 h
SF-268 = assay: Cytotoxicity against human SF-268 cells assessed as reduction in cell viability incubated for 48 hrs by MTT assay; assay type: functional, cell-based; conditions: SF-268, 48 h
MCF7 [18] = assay: Cytotoxicity against human MCF7 cells assessed as reduction in cell viability incubated for 48 hrs by MTT assay; assay type: functional, cell-based; conditions: MCF7, 48 h
DU-145 = assay: Cytotoxicity against human DU-145 cells assessed as cell growth inhibition measured after 48 hrs by MTT assay; assay type: functional, cell-based; conditions: DU-145, 48 h
NCI-H460 = assay: Cytotoxicity against human NCI-H460 cells assessed as reduction in cell viability incubated for 48 hrs by MTT assay; assay type: functional, cell-based; conditions: NCI-H460, 48 h
Histone deacetylase 2 = Histone deacetylase 2 (Homo sapiens, UniProt Q92769); assay: Inhibition of HDAC2 (unknown origin)
Histone deacetylase 2, sequence (Q92769 whole entry): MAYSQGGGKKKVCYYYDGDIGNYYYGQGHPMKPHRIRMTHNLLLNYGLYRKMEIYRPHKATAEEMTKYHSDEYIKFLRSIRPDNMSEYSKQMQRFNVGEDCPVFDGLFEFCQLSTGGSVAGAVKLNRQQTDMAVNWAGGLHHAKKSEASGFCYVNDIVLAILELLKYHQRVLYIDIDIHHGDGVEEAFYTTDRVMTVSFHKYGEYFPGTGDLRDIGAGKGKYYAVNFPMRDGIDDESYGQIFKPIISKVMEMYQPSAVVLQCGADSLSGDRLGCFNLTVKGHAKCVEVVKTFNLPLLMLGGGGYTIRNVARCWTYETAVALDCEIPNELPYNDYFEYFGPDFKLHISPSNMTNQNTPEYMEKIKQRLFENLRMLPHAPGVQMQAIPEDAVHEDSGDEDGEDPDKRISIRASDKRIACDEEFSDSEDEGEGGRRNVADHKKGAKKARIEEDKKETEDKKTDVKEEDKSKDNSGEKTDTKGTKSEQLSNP

Histone deacetylase 1 = Histone deacetylase 1 (Homo sapiens, UniProt Q13547); assay: Inhibition of HDAC1 (unknown origin)
Histone deacetylase 1, sequence (Q13547 whole entry): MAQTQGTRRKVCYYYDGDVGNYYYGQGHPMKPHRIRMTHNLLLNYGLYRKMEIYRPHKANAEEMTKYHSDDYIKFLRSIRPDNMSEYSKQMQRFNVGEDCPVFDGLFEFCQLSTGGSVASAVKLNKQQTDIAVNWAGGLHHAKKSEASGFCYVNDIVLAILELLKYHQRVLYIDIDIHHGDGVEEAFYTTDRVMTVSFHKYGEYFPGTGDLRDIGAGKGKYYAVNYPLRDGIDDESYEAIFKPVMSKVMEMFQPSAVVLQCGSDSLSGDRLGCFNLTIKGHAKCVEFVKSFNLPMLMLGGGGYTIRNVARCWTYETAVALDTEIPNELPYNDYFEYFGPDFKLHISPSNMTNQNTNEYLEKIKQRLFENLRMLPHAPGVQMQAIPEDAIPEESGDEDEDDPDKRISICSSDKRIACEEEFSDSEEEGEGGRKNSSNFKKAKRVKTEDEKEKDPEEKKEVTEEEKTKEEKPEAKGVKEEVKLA

HGC-27 = assay: Antiproliferative activity against human HGC-27 cells assessed as reduction in cell viability measured after 48 hrs by MTT assay; assay type: functional, cell-based; conditions: HGC-27, 48 h
MCF7 [19] = assay: Cytotoxicity against human MCF7 cells assessed as reduction in cell viability measured after 72 hrs by MTT assay; assay type: functional, cell-based; conditions: MCF7, 72 h
PC-3 = assay: Cytotoxicity against human PC-3 cells assessed as reduction in cell viability measured after 72 hrs by MTT assay; assay type: functional, cell-based; conditions: PC-3, 72 h
A549 [20] = assay: Cytotoxicity against human A549 cells assessed as reduction in cell viability incubated for 72 hrs by MTT assay; assay type: functional, cell-based; conditions: A549, 72 h
PC-9 = assay: Cytotoxicity against human PC-9 cells assessed as reduction in cell viability incubated for 72 hrs by MTT assay; assay type: functional, cell-based; conditions: PC-9, 72 h
MDA-MB-435 [21] = assay: Cytotoxicity against human MDA-MB-435 cells assessed as reduction in cell viability incubated for 72 hrs by MTT assay; assay type: functional, cell-based; conditions: MDA-MB-435, 72 h
A549 [22] = assay: Cytotoxicity against human A549 cells assessed as reduction in cell viability measured after 72 hrs by MTT assay; assay type: functional, cell-based; conditions: A549, 72 h
HCT-116 [23] = assay: Cytotoxicity against human HCT-116 cells assessed as reduction in cell viability incubated for 72 hrs by MTT assay; assay type: functional, cell-based; conditions: HCT-116, 72 h

CN1c2ccccc2C(=O)N2CCc3c([nH]c4c(Cl)cccc34)C21 (configuration not stated)
IC50 (MDA-MB-435 [1]): < 0.003 µM | IC50 (HCT-116 [2]): < 0.003 µM | IC50 (A549 [3]): 2.55 µM

CN1c2ccccc2C(=O)N2CCc3c([nH]c4c([N+](=O)[O-])cc([N+](=O)[O-])cc34)C21 (configuration not stated)
IC50 (MDA-MB-435 [1]): > 200 µM | IC50 (HCT-116 [2]): < 200 µM | IC50 (A549 [3]): > 200 µM

CN1c2ccccc2C(=O)N2CCc3c([nH]c4ccc(O)cc34)C21 (configuration not stated)
IC50 (MDA-MB-435 [1]): < 0.003 µM | IC50 (A549 [4]): < 0.003 µM | solubility [5]: 11 µg/mL (≈ 34.4 µM) | IC50 (HCT-116 [6]): < 0.003 µM

CN1c2ccccc2C(=O)N2CCc3c(n(C(=O)c4ccc(Cl)cc4)c4ccc(O)cc34)C21 (configuration not stated)
IC50 (A549 [7]): 26.6 µM | IC50 (MDA-MB-435 [8]): < 0.002 µM | IC50 (HCT-116 [9]): 0.05 µM

CC(N)C(=O)Nc1ccc2[nH]c3c(c2c1)CCN1C(=O)c2ccccc2N(C)C31 (configuration not stated)
IC50 (MCF7 [10]): 0.52 µM

CN1c2ccccc2C(=O)N2CCc3c([nH]c4ccc(NS(C)(=O)=O)cc34)C21 (configuration not stated)
IC50 (MCF7 [10]): 0.19 µM

CN1c2ccccc2C(=O)N2CCc3c([nH]c4ccc(N)cc34)C21 (configuration not stated)
IC50 (MCF7 [10]): 1.8 µM | solubility at 24 h [11]: 10 µg/mL (≈ 31.4 µM)

O=C1c2ccccc2N(c2ccccc2)C2c3[nH]c4ccccc4c3CCN12 (configuration not stated)
IC50 (Huh-7): 0.74 µM | IC50 (HepG2 [12]): 2.39 µM | IC50 (HCCLM9): 9.82 µM

CN1c2ccccc2C(=O)N2[C@H](C(=O)Nc3ccc(C(=O)Nc4ccccc4N)cc3)Cc3c([nH]c4ccccc34)[C@@H]12
IC50 (HCT-116 [13]): 1.6 µM

CN1c2cc(N)ccc2C(=O)N2CCc3c([nH]c4ccccc34)C21 (configuration not stated)
IC50 (SW-620): 1.28 µM | IC50 (MDA-MB-231): 0.79 µM

Cc1ccc2[nH]c3c(c2c1)CCN1C(=O)c2ccccc2N(c2ccccc2)C31 (configuration not stated)
IC50 (Huh-7): 0.44 µM | IC50 (HepG2 [12]): 0.92 µM | IC50 (HCCLM9): 0.24 µM

CN1c2ccccc2C(=O)N2CCc3c(n(S(=O)(=O)c4ccc([N+](=O)[O-])cc4)c4ccccc34)C21 (configuration not stated)
IC50 (MCF7 [14]): 2.68 µM | IC50 (HepG2 [15]): 18.4 µM

CN1c2ccccc2C(=O)N2CCc3c([nH]c4ccc(OC(=O)CCCC(=O)Oc5ccc6[nH]c7c(c6c5)CCN5C(=O)c6ccccc6N(C)C75)cc34)C21 (configuration not stated)
IC50 (A549 [4]): 0.73 µM | IC50 [16]: 0.58 µM | IC50 (MCF7 [17]): 0.2 µM | IC50 (HCT-116 [6]): 0.032 µM

COCCCCn1c2c(c3ccccc31)CCN1C(=O)c3ccccc3N(C)C21 (configuration not stated)
IC50 (HCT-15): < 2 µM | IC50 (SF-268): < 2 µM | IC50 (MCF7 [18]): < 2 µM | IC50 (DU-145): < 2 µM | IC50 (NCI-H460): < 2 µM

CN1c2ccccc2C(=O)N2CCc3c([nH]c4ccc(OC(=O)CCC(=O)Oc5ccc6[nH]c7c(c6c5)CCN5C(=O)c6ccccc6N(C)C75)cc34)C21 (configuration not stated)
IC50 (A549 [4]): 0.68 µM | IC50 [16]: 0.21 µM | IC50 (MCF7 [17]): 0.89 µM | IC50 (HCT-116 [6]): 0.032 µM

CN1c2ccc(NCc3ccc(/C=C/C(=O)NO)cc3)cc2C(=O)N2CCc3c([nH]c4ccc(O)cc34)C21 (configuration not stated)
IC50 (Histone deacetylase 2): 0.23 µM | IC50 (Histone deacetylase 1): 0.018 µM | IC50 (HCT-116 [6]): 0.18 µM

COc1ccc2c(c1)c1c(n2C(=O)c2cc(OC)c(OC)c(OC)c2)C2Oc3ccccc3C(=O)N2CC1 (configuration not stated)
IC50 (HGC-27): 6.1 µM

Cc1cc2c(s1)N(C)C1c3[nH]c4ccccc4c3CCN1C2=O (configuration not stated)
IC50 (MCF7 [19]): 9.02 µM | IC50 (PC-3): 7.77 µM | IC50 (A549 [20]): 10.5 µM | IC50 (PC-9): 9.46 µM

CN1c2ccc(-c3ccnc(N4CCNCC4)c3)cc2C(=O)N2CCc3c([nH]c4ccccc34)C21 (configuration not stated)
IC50 (MDA-MB-435 [21]): 2.78 µM | IC50 (A549 [22]): 6.8 µM | IC50 (HCT-116 [23]): 5.94 µM

CN1c2ccc(NCC3CCN(c4ncc(C(=O)NO)cn4)CC3)cc2C(=O)N2CCc3c([nH]c4ccc(O)cc34)C21 (configuration not stated)
IC50 (Histone deacetylase 2): 0.005 µM | IC50 (Histone deacetylase 1): 0.004 µM | IC50 (HCT-116 [6]): 0.23 µM

CN1c2ccc(NC(=O)CBr)cc2C(=O)N2CCc3c([nH]c4ccccc34)C21 (configuration not stated)
IC50 (MDA-MB-435 [21]): 22.7 µM | IC50 (A549 [22]): 154 µM | IC50 (HCT-116 [23]): 28 µM

CN1c2ccccc2C(=O)N2CCc3c([nH]c4ccccc34)C21 (configuration not stated)
IC50 (Huh-7): 0.78 µM | IC50 (HepG2 [12]): 21.5 µM | IC50 (HCCLM9): 1.63 µM | IC50 (HGC-27): 2.28 µM
